Experimental data from patent US20240156901A1, “GAL3BP POLYPEPTIDE COMPOSITIONS AND METHODS FOR TREATMENT OF CANCER AND DETERMINING TREATMENT RESPONSIVENESS” (UNIVERSITY OF PITTSBURGH-OF THE COMMONWEALTH SYSTEM OF …, priority 2021, published 2024).

Assays:
CHI3L1 secretion = assay: ELISA of secreted CHI3L1 in conditioned medium of GBM neurosphere lines; format: cell-based, human; details: two GBM neurosphere lines
Method: Secreted CHI3L1 protein in the cell culture supernatant was measured by using the Quantikine Human CHI3L1 Immunoassay (R&D Systems, Cat #DC3L10). CHI3L1 content in the conditioned media was quantified per million cells and no CHI3L1 was detected in DMEM or NSC medium supplemented with EGF and bFGF.

Gal3-CHI3L1 interaction = Gal3-CHI3L1 interaction (Homo sapiens, UniProt P17931); details: TS603-V5-CHI3L1 cells; 10 μM for 24 hours
Method: (§1) TS603 cells overexpressing CHI3L1 with V5 tag (TS603 CHI3L1_V5_OE) or THP-1 cells treated with the peptides were collected and protein-protein interaction was crosslinked with 2 mM Dithiobis (succinimidyl propionate, DSP). Membrane proteins were extracted with the Membrane Protein Extraction Kit (ThermoFisher, Cat #89842) and ˜500 μg of protein was used for Co-IP assay by the Co-Immunoprecipitation Kit (ThermoFisher, Cat #26149). For mass spectrometry, 10 μg of each of the TS603 CHI3L1_V5_OE Co-IP samples were separated in a 12% SDS-PAGE gel and analyzed by MS at the University of Pittsburgh Biomedical MS Center.
(§2) To confirm Co-IP experiments in TS603 cells by immunoblotting, the magnetic beads of protein G (Bio-Rad, Cat #161-4023) were used following the manufacturer's protocol. […] For in vivo THP-1 cell or in vitro recombinant protein Co-IP experiments, additional following antibodies were used: Mouse anti-CHI3L1 (Santa Cruz Biotechnology, Cat #SC-393590), Rat anti-Galectin-3 (Santa Cruz Biotechnology, Cat #SC-23938), anti-Galectin-3BP (Santa Cruz Biotechnology, Cat #SC-374541), Rabbit anti-CHI3L1 (Cell Signaling Technology, Cat #47066), and Rat IgG (BioXCell, Cat #BE0090).

Gal3-Gal3BP interaction = Gal3-Gal3BP interaction (Homo sapiens, UniProt P17931); details: TS603-V5-CHI3L1 cells; 10 μM for 24 hours
Method: as §1, §2

[1] = tested on: GL261-CHI3L1 orthotopic tumors; assay: Peptide treatment of GL261-CHI3L1 orthotopic tumors (MRI, survival); details: C57BL/6 mice bearing GL261-CHI3L1 orthotopic tumors; 20 μM peptide into brain tumor via guide screw
Method: Male and female ICR SCID and C57BL/6 mice (4-6 weeks of age) were purchased from Taconic Biosciences and The Jackson Laboratory, respectively. The intracranial xenograft tumor models were established as previously described (Hu B et al., 2016). Cells in 5 μL DPBS were injected at the following numbers: TS543 vector control or CHI3L1 overexpression (OE), 1×10^4 cells; QPP7 scrambled control or CHI3L1 knockdown (KD), 1×10^5 cells; and GL261 vector control or CHI3L1 OE, 1×10^5 cells. […] For mice treated with peptides, 5 uL of 20 uM SCP or GMP was delivered into the mouse brain every 4 days with a total of seven times.
MRI and bioluminescent imaging of mice were performed at Rangos Research Center Animal Imaging Core. The tumor size of mice detected by MRI was analyzed with ITK-SNAP.
For intracranial xenograft tumor models treated with peptides, mice were implanted with a guide screw prior to intracranial injection. To install the screw, mice were anesthetized by intraperitoneal (IP) injection with ketamine/xylazine solution (1.75 mL of 100 mg/mL ketamine and 0.25 mL of 100 mg/mL xylazine in 8 mL sterile water) at a dosage of 100 μL/20 g body weight. The screw was covered by sealing the skin, and mice were allowed to recover for one week before intracranial implantation. GL261 cells overexpressing CHI3L1 (1×10^5) were injected in 5 μL of DPBS containing 20 μM of either scrambled control peptide (SCP) or Gal3BP mimetic peptide (GMP). SCP (20 μM) or GMP (20 μM) was subsequently given once every 3 days with a total of seven times by intracranial injection via the guide screw.
All mice received general inhalation anesthesia with Isoflurane for in vivo brain imaging. […] Depth of anesthesia was monitored by toe reflex (extension of limbs, spine positioning) and respiration rate. […] Respiration was monitored using a pneumatic sensor placed between the animal bed and the mouse's abdomen, rectal temperature was measured with a fiberoptic sensor, and core temperature was maintained at 36.8±0.2° C. with a feedback-controlled warm air source (SA Instruments). […]

GL261-CHI3L1 glioma = assay: Flow cytometry of immune cell populations in GL261-CHI3L1 glioma after peptide treatment; format: in vivo, mouse; details: tumors of C57BL/6 mice bearing GL261-CHI3L1
Method: Mice with neurological deficits or moribund appearance were sacrificed. Tumors were separated and homogenized for 15 min at 37° C. in Collagenase IV Cocktail (3.2 mg/mL collagenase type IV, 2 mg/mL soybean trypsin inhibitor, and 1.0 mg/mL deoxyribonuclease I; Worthington Biochemical). Red blood cells were lysed using ACK lysing buffer (Gibco). Cell suspensions were filtered through 70-μm strainers, centrifuged, and resuspended in cold FACS buffer (DPBS with 1% BSA) for further analysis.
About 3×10^6 cells were used for each staining panel. Cells were incubated with 1.0 μg of TruStain fcX (BioLegend) for 10 min on ice to block Fc receptors, followed by staining with the combination of indicated antibodies. After staining, cells were washed with FACS buffer three times and incubated with Fixation Buffer (BioLegend) at RT for 20 min. Cells were washed with FACS buffer, resuspended in Cyto-Last Buffer (BioLegend), and analyzed by either a BD LSRFortessa or BD FACSAria II SORP. For CyTOF, samples were prepared as described above for flow cytometry. Three pairs of samples (scrambled shRNA vs Chi3l1 KD) with similar tumor sizes were chosen and the staining procedure was followed as previously described (Mitsialis V, et al., 2020). The samples were analyzed on a Helios2 CyTOF system (Fluidigm) at the Longwood Medical Area CyTOF Core. Additional information about flow cytometry antibodies is provided in the Supplementary Material and Methods section.

[2] = tested on: mouse microglial cell line (SIM-A9); assay: Scratch-wound healing assay, microglial cell migration; format: cell-based; details: rCHI3L1 0.6 μg/mL, 6 hours
Method: (§3) BMDM were polarized to the indicated status (M0, M1, or M2) and seeded in 12-well plates at 80-90% confluency. The cells were switched to the medium without FBS for 6 hours of starvation. Scratches were made using pipettor tips and fresh IMDM with indicated recombinant proteins and/or peptides were added. Images of the scratches were captured at indicated times. For the SIM-A9 scratch-wound healing assay, 12-well plates were coated with 10 μg/mL fibronectin (Sigma-Aldrich) at 37° C. overnight before seeding cells.

[3] = tested on: bone-marrow derived macrophages (BMDMs); assay: Scratch-wound healing assay, BMDM migration; format: cell-based, mouse; details: rCHI3L1 0.6 μg/mL; 6 hours
Method: (§4) BMDMs were isolated from male and female C57BL/6 mice as previously described (Ying W et al., 2013). Briefly, femur bones were isolated from mice, and IMDM (ATCC) supplemented with 10% FBS and P/S was used to flush the bone marrow into a petri dish. After 4-6-hour incubation, the floating cells were collected and resuspended in the medium with 20 ng/mL M-CSF (PrproTech). On day 6, the fully differentiated cells were designated as an M0 state. To induce BMDM polarization toward an M1 state, 100 ng/mL LPS (Invitrogen) and 50 ng/mL IFNγ (PrproTech) were added to the M0 cells for 24 hours. To induce BMDM polarization toward an M2 state, 20 ng/mL IL-4 (PrproTech) was added to the M0 cells for 72 hours.
as §3

[4] = tested on: microglial cell line (SIM-A9); assay: Transwell migration assay, microglial cell migration; format: cell-based, mouse
Method: (§5) Polarized BMDMs were starved by removing FBS for 6 hours. Cells were collected and 2×10^5 cells in 200 μL of IMDM were added into each transwell insert (Millipore, Cat #MCMP24H48). 700 μL of IMDM containing 2% FBS and the indicated recombinant proteins was added to the bottom of the plates. After 14-hour incubation, transwell inserts were stained with HEMA 3 Stain Set (Fisher Scientific). Insert membranes were separated and mounted on glass slides with CYTOSEAL XYL (ThermoFisher) and images were taken by an inverted microscope (Leica DM 2500). For the SIM-A9 cells, the inserts were coated with 10 μg/mL fibronectin overnight in advance of seeding cells.

[5] = tested on: bone-marrow derived macrophages (BMDMs); assay: Transwell migration assay, BMDM migration; format: cell-based, mouse
Method: as §4, §5

Chain of Gal3-CHI3L1 interaction (P17931 2-250 limits assumed): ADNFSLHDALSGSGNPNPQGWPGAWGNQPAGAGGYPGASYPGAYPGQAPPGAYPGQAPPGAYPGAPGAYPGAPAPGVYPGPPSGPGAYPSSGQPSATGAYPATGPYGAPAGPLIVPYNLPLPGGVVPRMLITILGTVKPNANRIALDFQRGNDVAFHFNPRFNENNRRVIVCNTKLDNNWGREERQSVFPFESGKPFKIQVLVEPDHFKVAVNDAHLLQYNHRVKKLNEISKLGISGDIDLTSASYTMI
Chain of Gal3-CHI3L1 interaction (P36222 22-383 partner): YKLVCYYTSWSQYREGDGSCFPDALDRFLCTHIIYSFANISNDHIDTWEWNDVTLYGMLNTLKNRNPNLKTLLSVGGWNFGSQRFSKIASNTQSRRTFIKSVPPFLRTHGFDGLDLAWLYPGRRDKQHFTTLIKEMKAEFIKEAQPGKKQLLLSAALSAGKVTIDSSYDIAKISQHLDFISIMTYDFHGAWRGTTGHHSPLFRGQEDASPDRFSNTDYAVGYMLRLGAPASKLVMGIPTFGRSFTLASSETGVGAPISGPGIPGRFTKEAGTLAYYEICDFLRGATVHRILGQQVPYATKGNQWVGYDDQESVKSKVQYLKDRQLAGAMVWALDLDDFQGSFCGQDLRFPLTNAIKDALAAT
Chain of Gal3-Gal3BP interaction (P17931 2-250 limits assumed): as the sequence (P17931 2-250 limits assumed) above
Chain of Gal3-Gal3BP interaction (P36222 22-383 partner): as the sequence (P36222 22-383 partner) above

Cn1c(=O)n(-c2ccc(C(C)(C)C#N)cc2)c2c3cc(-c4cnc5ccccc5c4)ccc3ncc21 [NVP-BEZ235]
CHI3L1 secretion in conditioned medium (CHI3L1 secretion): decreased CHI3L1 secretion in a dose- and time-dependent manner

Nc1cc(C(F)(F)F)c(-c2cc(N3CCOCC3)nc(N3CCOCC3)n2)cn1 [NVP-BKM120]
CHI3L1 secretion in conditioned medium (CHI3L1 secretion): decreased CHI3L1 secretion in a dose- and time-dependent manner

OC[C@H]1O[C@@H](S[C@@H]2O[C@H](CO)[C@H](O)[C@H](n3cc(-c4cccc(F)c4)nn3)[C@H]2O)[C@H](O)[C@@H](n2cc(-c3cccc(F)c3)nn2)[C@H]1O [TD139]
Gal3-CHI3L1 interaction (Co-IP) (Gal3-CHI3L1 interaction): not Gal3-CHI3L1 interactions | Gal3-Gal3BP interaction (Co-IP) (Gal3-Gal3BP interaction): completely disrupted

L1RTRLEETLSSDTSH15 (LRTRLEETLSSDTSH) [SCP, scrambled control peptide, reference compound]
median survival [1]: 29 days | CD4+ cell population (GL261-CHI3L1 glioma): 39.8±4.0% | M2-like TAMs (GL261-CHI3L1 glioma; mean±SEM, P=0.0536): 52.7±3.9% | M1-like TAMs (GL261-CHI3L1 glioma; mean±SEM, P=0.0719): 38.2±6.7%

rCHI3L1: recombinant CHI3L1 protein
microglial cell migration [2]: did not increase cell migration | M0 and M1 BMDM migration [3]: not M0 and M1 BMDMs | M2 BMDM migration [3]: promoted M2 BMDM migration | microglial cell migration [4]: not in M0 BMDMs, M1 BMDMs, or microglial cells | M2 BMDM migration [5]: promoted cell migration in M2 BMDMs
